Tested on: 415267-285-R-J2-PDC complex spheroid viability
Test: Anticancer human tumor 415267-285-R-J2-PDC patient-derived breast carcinoma cell line growth inhibition [POLQ]
Settings: for IC50: curve of first compound; for viability, T/C: stronger effect = lower value
Experimental: Multicellular complex tumor spheroid response to Polymerase (POL) inhibitors (novobiocin, ART-558, RP6685) in combination with a variety of drugs and investigational agents in selected tumor cell lines
The POL inhibitors (novobiocin, ART-558, and RP6685) were evaluated both individually and in combination with standard of care and investigational anticancer small molecules within a complex spheroid model of solid tumors. . Complex spheroids include a stromal component modeled by human endothelial cells (HUVEC) and fibroblasts modeled by human mesenchymal stem cells (MSCs). The concentration ranges selected for each drug and investigational agent were based upon clinically achievable concentrations if the clinical Cmax of the agent was known.
Compounds. The drugs and investigational agents: novobiocin (NSC847541), ART-558 (NSC835418), RP-6685 (NSC848927), peposertib (NSC802822), ceralasertib (NSC780249), elimusertib (NSC800525), camonsertib (NSC841442), AZD-1390 (NSC803789), olaparib (NSC753686), talazoparib (NSC767125), rucaparib (NSC756644), sotorasib (NSC818433), MRTX-1133 (NSC836407), SN-38 (NSC673596), topotecan (NSC609699), epotoside (NSC141540), doxorubicin (NSC123127), gemcitabine (NSC613327), 5-fluorouracil (NSC19893), paclitaxel (NSC125973), vemurafenib (NSC761431), MSA-2 (NSC828583), SN-011 (NSC837082), adavosertib (NSC754352), prexasertib (NSC758257), carboplatin (NSC241240) and oxaliplatin (NSC266046), were obtained from the National Cancer Institute (NCI) Developmental Therapeutics Program Chemical Repository (21). The FDA-approved anticancer drug set is available from the Developmental Therapeutics Program at https://dtp.cancer.gov/organization/dscb/obtaining/. […] The stock solutions were prepared in dimethyl sulfoxide (DMSO, Sigma-Aldrich, St. Louis, MO, cat. D2650), except for the platinum compounds which were prepared in saline (Quality Biological, Gaithersburg, MD, cat. 114-055-101), at 800-fold the tested concentration and stored at -70 degrees C prior to their use. All drugs and investigational agents were tested over a range starting from a high concentration at or near the clinical Cmax and decreasing in half-log increments. If the clinical Cmax for an agent had not been determined, the highest concentration tested was 10 microM, except for SN-38, which was tested at a high concentration of 1 microM.
Cell Culture. All cells were maintained in an incubator at 37 degrees C and 5% CO2 with 95% humidity. The PDC lines were cultured according to standard operating procedures established by the NCI PDMR (https://pdmr.cancer.gov). Table 3 of the manuscript, lists the cell lines along with the number of the three cell types plated to form the mct-spheroids and media for tumor cell growth. After thawing, all PDC lines, except 997537-175-T-J1-PDC and 415267-285-R-J2-PDC, were cultured in Matrigel-coated flasks prepared with a working solution of 1X Ham's F-12 nutrient mix, without supplementation (Thermo Fisher Scientific, cat. 11765054), 100 U/mL penicillin-streptomycin (Thermo Fisher Scientific, cat. 15140122), and 2.5% Matrigel (Corning Inc., Corning, NY, cat. 354248) for the first three passages. The two PDC lines 997537-175-T-J1-PDC and 415267-285-R-J2-PDC were cultured on uncoated flasks. The 857933-349-R-J2-PDC line was cultured in 6C/Colon 1B media containing advanced DMEM/F-12 (Thermo Fisher Scientific, cat. 12634028), 10 mM HEPES (Thermo Fisher Scientific, cat. 15630080), 1X GlutaMAX supplement (Thermo Fisher Scientific, cat. 35050061), 0.1 mg/mL primocin (InvivoGen, San Diego, CA, cat. ant-pm-2), 10% defined fetal bovine serum, heat inactivated (HyClone Laboratories Inc., Logan, UT, cat. SH30070.03HI), 50% L-WRN conditioned media (ATCC, cat. CRL-3276), 1.25 mM N-Acetyl-L-cysteine (Sigma-Aldrich, cat. A9165), 10 mM nicotinamide (Sigma-Aldrich, cat. N0636), 1X B-27 supplement (Thermo Fisher Scientific, cat. 17504044), 1X N-2 supplement (Thermo Fisher Scientific, cat. […]
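Further: spheroids exposed to compounds for one week before readout.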
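Wherever viability, T/C is given: luminescence used as stand-in measure of viable cells; 100% = DMSO vehicle control viability.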

Cn1ncnc1[C@H]1c2n[nH]c(=O)c3cc(F)cc(c23)N[C@@H]1c1ccc(F)cc1 + Cc1cccc(N(C)C(=O)C2C(O)CCN2c2nc(C)cc(C(F)(F)F)c2C#N)c1
IC50 (second compound 0.0316 µM): > 100 nM | IC50 (second compound 0.1 µM): > 100 nM | IC50 (second compound 0.316 µM): > 100 nM | IC50 (second compound 1 µM): > 100 nM | IC50 (second compound 3.16 µM): > 100 nM | IC50 (second compound 10 µM): > 100 nM | viability, T/C (second compound 0.0316 µM, first compound 0.000316 µM): 92.9% | viability, T/C (second compound 0.0316 µM, first compound 0.001 µM): 103% | viability, T/C (second compound 0.0316 µM, first compound 0.00316 µM): 106% | viability, T/C (second compound 0.0316 µM, first compound 0.01 µM): 96.3% | viability, T/C (second compound 0.0316 µM, first compound 0.0316 µM): 104% | viability, T/C (second compound 0.0316 µM, first compound 0.1 µM): 96.5% | viability, T/C (second compound 0.1 µM, first compound 0.000316 µM): 90.8% | viability, T/C (second compound 0.1 µM, first compound 0.001 µM): 93.9% | viability, T/C (second compound 0.1 µM, first compound 0.00316 µM): 114% | viability, T/C (second compound 0.1 µM, first compound 0.01 µM): 109% | viability, T/C (second compound 0.1 µM, first compound 0.0316 µM): 99.9% | viability, T/C (second compound 0.1 µM, first compound 0.1 µM): 97.9% | viability, T/C (second compound 0.316 µM, first compound 0.000316 µM): 97.1% | viability, T/C (second compound 0.316 µM, first compound 0.001 µM): 90.4% | viability, T/C (second compound 0.316 µM, first compound 0.00316 µM): 95.7% | viability, T/C (second compound 0.316 µM, first compound 0.01 µM): 96.8% | viability, T/C (second compound 0.316 µM, first compound 0.0316 µM): 95.3% | viability, T/C (second compound 0.316 µM, first compound 0.1 µM): 87.2% | viability, T/C (second compound 1 µM, first compound 0.000316 µM): 103% | viability, T/C (second compound 1 µM, first compound 0.001 µM): 95.6% | viability, T/C (second compound 1 µM, first compound 0.00316 µM): 93.9% | viability, T/C (second compound 1 µM, first compound 0.01 µM): 101% | viability, T/C (second compound 1 µM, first compound 0.0316 µM): 98.3% | viability, T/C (second compound 1 µM, first compound 0.1 µM): 101% | viability, T/C (second compound 3.16 µM, first compound 0.000316 µM): 92.9% | viability, T/C (second compound 3.16 µM, first compound 0.001 µM): 97.1% | viability, T/C (second compound 3.16 µM, first compound 0.00316 µM): 103% | viability, T/C (second compound 3.16 µM, first compound 0.01 µM): 103% | viability, T/C (second compound 3.16 µM, first compound 0.0316 µM): 99.8% | viability, T/C (second compound 3.16 µM, first compound 0.1 µM): 87.7% | viability, T/C (second compound 10 µM, first compound 0.000316 µM): 93.3% | viability, T/C (second compound 10 µM, first compound 0.001 µM): 97.9% | viability, T/C (second compound 10 µM, first compound 0.00316 µM): 110% | viability, T/C (second compound 10 µM, first compound 0.01 µM): 93% | viability, T/C (second compound 10 µM, first compound 0.0316 µM): 91% | viability, T/C (second compound 10 µM, first compound 0.1 µM): 90.5%
